Tests used:
Human whole blood = assay: Human Whole Blood Assay (LPS induced PGE2 production); type: cell-based; settings: LPS 100 μg/mL, 20-24 hours, PGE2 by LC/MS/MS, read-out: PGE2 Inhibition. IC50 (μM, mean ± std. dev.)
Method: Blood is collected from normal volunteer donors into sodium heparin vacutainer tubes. Donors are selected, in part, on their confirmation that they have not taken NSAIDs, aspirin, Celebrex, or glucocorticoids within two weeks of the donation. All tubes/donor are pooled into 250 mL Corning conical centrifuge tubes and 436.5 μL/well is distributed into deep well polypropylene plates. Compounds are diluted in DMSO to 100× final and 4.5 μL/well in duplicate or triplicate is added to give 7 point curves. […] One hundred microliters is quantitatively transferred to Costar cluster tubes blocks and 400 μL/well of the methanol stop reagent and internal standards, d-4PGE2, d-4PGF2α, and d-4TX2β are added. […]
Solid phase extraction is performed using Waters HLB 30 mg/bed 96 well plates on a vacuum manifold: 1) the matrix is washed with methanol (1 mL), followed by 0.1% formic acid in water (1 mL); 2) 400 μL sample is applied along with 0.1% formic acid in water (900 μL) and allowed to bind for 5 minutes; 3) the matrix is washed with 0.1% formic acid in water (600 μL), followed by 80/20 water/methanol (600 μL); 4) the products are eluted with 2-500 μL volumes of ethyl acetate; 5) the samples are dried under nitrogen and reconstituted in 75/25 water/acetonitrile with 0.1% formic acid (50 μL). The products were analyzed by LC/MS/MS. […]

[1] = test system: Human epithelial lung carcinoma cell line A549; assay: Cell Based Assay for Measuring Eicosanoid Selectivity (rhIL-1β induced PGE2 in A549 cells); settings: rhIL-1β 0.1-0.2 ng/mL, approximately 18 hours, PGE2 by EIA, read-out: PGE2 Inhibition. IC50 (μM, mean ± std. dev.)
Method: Human epithelial lung carcinoma cell line A549 is obtained from ATCC (CCL-185) and is maintained in Kaighn's F12 (“F12K”)+10% fetal bovine serum, (FBS) (plating medium), and 5% CO2. The cells are passaged at 1:3 twice per week.
For assay, cells are released from flasks by washing once with phosphate buffered saline (PBS), then once with Trypsin/EDTA. After 3-5 minutes at 37° C., the cells are suspended in 10 mL of plating medium and centrifuged at 2000 rpm, 25° C., for 5 minutes. The supernatant is aspirated and the cell pellet is resuspended in 10 mL F12K. Cell number is determined by counting an aliquot of cells which has been diluted in PBS and Trypan blue on a hemocytometer. Cells are plated at 40,000/well in 96 well Falcon plates 24 hours prior to treatment. Compounds are diluted in DMSO to 100× of the final concentration in Screen Mates tubes. The medium is removed from the cells and fresh medium (90 μL/well) is added to the cells. […] The plates are incubated at room temperature for 30-45 minutes and then read on a plate reader at A490 to determine viability. […]
The conditioned medium is assayed for levels of PGE2 and PGI2 by specific enzyme immune-assays (EIAs), according to the manufacturer's protocols (Cayman). […] After approximately 45 minutes at room temperature on an orbital shaker at 100 rpm, the plates are read at A412 on a plate reader. […]

CC(C)(C)C(=O)NCc1ccc(Br)c(C(=O)Nc2ncc[nH]2)c1 [Example 5, 2-Bromo-5-[(2,2-dimethylpropanoylamino)methyl]-N-(1H-imidazol-2-yl)benzamide]
IC50 (Human whole blood): 0.607 ± 0.502 µM
IC50 [1]: 0.19 µM

From patent US8252831B2, “Imidazole-2-benzamide compounds useful for the treatment of osteoarthritis” (Eli Lilly and Company, priority 2010, dated 2012)
